This note sets out measurements from patent publication US8476298B2 (Exelixis, Inc., priority 2003, dated 2013).

Like-named read-outs stand apart in the source and are kept apart here.

In assay [1] the target is T1, c-Met (baculovirus expressed human c-Met kinase domain P948-S1343) (Homo sapiens, UniProt P08581).
T1 construct: human c-Met kinase domain P948-S1343; host or cells: baculovirus expression
Kind of assay: c-Met Luciferase-Coupled Chemiluminescent Kinase assay (LCCA).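 Note: kinase activity read as percent ATP left after reaction, by luciferase-luciferin chemiluminescence, with 1 µM ATP and 1 µM poly-EY substrate, 2 h at ambient temperature, 10-point dose-response.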 It is filed as biochemical.

The target of assay [2] is T2, KDR (baculovirus expressed human KDR kinase domain D807-V1356) (Homo sapiens, UniProt P35968).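 Note: Luciferase-coupled chemiluminescent kinase assay, activity read as percent ATP left after 4 h reaction at ambient temperature, ATP near KM, 10-point dose-response in 384-well plates.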
T2 construct: human KDR kinase domain D807-V1356; host or cells: baculovirus expression
Kind of assay: biochemical.

Assay [3] concerns the target T3, Flt-3 (baculovirus expressed human Flt-3 kinase domain R571-S993) (Homo sapiens, UniProt P36888).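 Note: Luciferase-coupled chemiluminescent kinase assay, activity read as percent ATP left after a 3 h reaction at room temperature, ATP near KM, 10-point dose-response.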
T3 construct: human Flt-3 kinase domain R571-S993; host or cells: baculovirus expression
T3 sequence (P36888 571-993): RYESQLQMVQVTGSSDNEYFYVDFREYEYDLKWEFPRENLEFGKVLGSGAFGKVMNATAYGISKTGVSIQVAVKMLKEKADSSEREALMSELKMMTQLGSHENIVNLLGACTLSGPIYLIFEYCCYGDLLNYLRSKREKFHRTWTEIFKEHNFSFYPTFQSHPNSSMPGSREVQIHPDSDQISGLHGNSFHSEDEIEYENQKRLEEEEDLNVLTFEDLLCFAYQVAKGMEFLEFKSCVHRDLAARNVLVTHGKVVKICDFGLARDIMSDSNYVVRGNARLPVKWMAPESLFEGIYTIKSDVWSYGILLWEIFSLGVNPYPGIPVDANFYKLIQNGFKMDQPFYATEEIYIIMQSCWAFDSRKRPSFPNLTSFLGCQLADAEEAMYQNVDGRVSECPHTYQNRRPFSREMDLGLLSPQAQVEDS
The assay can be described thus: biochemical. Conditions: read-out: flt3 IC50.

Where [4] appears, read: Table 4, inhibition as IC50 class.

In general, IC50 refers to the concentration that inhibits the measured activity by half.

T1 sequence (P08581 1011-1343 limits assumed): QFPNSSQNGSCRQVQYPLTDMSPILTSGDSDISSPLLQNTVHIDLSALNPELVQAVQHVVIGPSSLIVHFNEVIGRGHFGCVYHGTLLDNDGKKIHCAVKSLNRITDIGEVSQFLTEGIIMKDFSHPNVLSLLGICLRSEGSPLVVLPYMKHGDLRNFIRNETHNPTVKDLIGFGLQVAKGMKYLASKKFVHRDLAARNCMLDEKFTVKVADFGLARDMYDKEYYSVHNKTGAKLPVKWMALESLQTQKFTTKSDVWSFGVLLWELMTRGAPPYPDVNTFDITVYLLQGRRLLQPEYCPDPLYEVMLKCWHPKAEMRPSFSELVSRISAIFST
T2 sequence (P35968 807-1356): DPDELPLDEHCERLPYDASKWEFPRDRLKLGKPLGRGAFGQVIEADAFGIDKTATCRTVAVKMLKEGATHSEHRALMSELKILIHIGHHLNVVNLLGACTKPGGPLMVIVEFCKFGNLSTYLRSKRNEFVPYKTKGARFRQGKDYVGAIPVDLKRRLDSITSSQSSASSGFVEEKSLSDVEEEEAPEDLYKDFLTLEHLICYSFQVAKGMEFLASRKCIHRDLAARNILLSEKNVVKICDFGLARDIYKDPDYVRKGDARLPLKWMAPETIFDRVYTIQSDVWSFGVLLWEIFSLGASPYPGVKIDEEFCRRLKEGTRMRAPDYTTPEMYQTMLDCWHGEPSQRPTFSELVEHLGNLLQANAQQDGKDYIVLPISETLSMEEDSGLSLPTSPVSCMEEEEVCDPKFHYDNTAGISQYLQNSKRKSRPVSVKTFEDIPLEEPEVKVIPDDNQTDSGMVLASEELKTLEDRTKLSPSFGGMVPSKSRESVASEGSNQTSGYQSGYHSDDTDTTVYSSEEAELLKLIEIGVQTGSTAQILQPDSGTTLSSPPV

For `COc1cc2c(Oc3ccc(NC(=O)C4(C(=O)Nc5ccc(F)cc5)CCC4)cc3F)ncnc2cc1OCCCN1CCN(C)CC1` [Example 381, N-{3-fluoro-4-[(6-(methyloxy)-7-{[3-(4-methylpiperazin-1-yl)propyl]oxy}quinazolin-4-yl)oxy]phenyl}-N′-(4-fluorophenyl)cyclobutane-1,1-dicarboxamide], the IC50 in assay [1] is below 50 nM; in assay [2], below 50 nM; in assay [3], 50 to 500 nM.
Regarding `COc1cc2c(Oc3ccc(NC(=O)C4(C(=O)Nc5ccc(F)cc5)[C@H](C)[C@H]4C)cc3F)ccnc2cc1OCCCN1CCOCC1` (stereo partly drawn) [Example 370, (2R,3R)-N-[3-fluoro-4-({6-(methyloxy)-7-[(3-morpholin-4-ylpropyl)oxy]quinolin-4-yl}oxy)phenyl]-N′-(4-fluorophenyl)-2,3-dimethylcyclopropane-1,1-dicarboxamide], the IC50 is below 50 nM in assay [1], below 50 nM in assay [2] and 50 to 500 nM in assay [3].
As for `CCN(CC)CCOc1cc2nccc(Oc3ccc(NC(=O)[C@@]4(C(=O)Nc5ccc(F)cc5)[C@H](C)[C@@H]4C)cc3F)c2cc1OC` [Example 376, (1r,2R,3S)-N-(4-{[7-{[2-(diethylamino)ethyl]oxy}-6-(methyloxy)quinolin-4-yl]oxy}-3-fluorophenyl)-N′-(4-fluorophenyl)-2,3-dimethylcyclopropane-1,1-dicarboxamide], the IC50 is below 50 nM in assay [1], 50 to 500 nM in assay [2] and 50 to 500 nM in assay [3].
Take `CCN(CC)CCOc1cc2c(Oc3ccc(NC(=O)C4(C(=O)Nc5ccc(F)cc5)CC4)cc3F)ccnc2cc1OC` [Example 345, N-(4-{[6-{[2-(diethylamino)ethyl]oxy}-7-(methyloxy)quinolin-4-yl]oxy}-3-fluorophenyl)-N′-(4-fluorophenyl)cyclopropane-1,1-dicarboxamide]: the half-inhibitory concentration (IC50) in assay [1], in assay [2] and in assay [3] was below 50 nM in each case.
`CCN(CC)CCOc1cc2nccc(Oc3ccc(NC(=O)[C@]4(C(=O)Nc5ccc(F)cc5)C[C@H]4C)cc3F)c2cc1OC` [Example 360, (1R,2R)-N-(4-{[7-{[2-(diethylamino)ethyl]oxy}-6-(methyloxy)quinolin-4-yl]oxy}-3-fluorophenyl)-N′-(4-fluorophenyl)-2-methylcyclopropane-1,1-dicarboxamide]: the IC50 in assay [1], in assay [2] and in assay [3] was below 50 nM in each case.
Turning to `CCN(CC)CCCOc1cc2ncnc(Oc3ccc(NC(=O)C4(C(=O)Nc5ccc(F)cc5)[C@H](C)[C@H]4C)cc3F)c2cc1OC` (stereo partly drawn) [Example 389, (2R,3R)-N-(4-{[7-{[3-(diethylamino)propyl]oxy}-6-(methyloxy)quinazolin-4-yl]oxy}-3-fluorophenyl)-N′-(4-fluorophenyl)-2,3-dimethylcyclopropane-1,1-dicarboxamide], the IC50 was below 50 nM in assay [1], below 50 nM in assay [2] and 50 to 500 nM in assay [3].
With `CCN(CC)CCCOc1cc2nccc(Oc3ccc(NC(=O)C4(C(=O)Nc5ccc(F)cc5)CCC4)cc3F)c2cc1OC` [Example 384, N-(4-{[7-{[3-(diethylamino)propyl]oxy}-6-(methyloxy)quinolin-4-yl]oxy}-3-fluorophenyl)-N′-(4-fluorophenyl)cyclobutane-1,1-dicarboxamide], the IC50 in assay [1] is below 50 nM; in assay [2], below 50 nM; in assay [3], 500 to 5000 nM.
As for `COc1cc2c(Oc3ccc(NC(=O)[C@]4(C(=O)Nc5ccc(F)cc5)C[C@H]4C)cc3F)ccnc2cc1OCCCN1CCN(C(=O)OC(C)(C)C)CC1` [Example 351, 1,1-dimethylethyl 4-(3-{[4-[(2-fluoro-4-{[((1R,2R)-1-{[(4-fluorophenyl)amino]carbonyl}-2-methylcyclopropyl)carbonyl]amino}phenyl)oxy]-6-(methyloxy)quinolin-7-yl]oxy}propyl)piperazine-1-carboxylate], the results for the concentration for half-maximal inhibition (IC50) in assay [1], in assay [2] and in assay [3] were below 50 nM, below 50 nM and 50 to 500 nM, respectively.
For `CCN(CC)CCCOc1cc2ncnc(Oc3ccc(NC(=O)C4(C(=O)Nc5ccc(F)cc5)CC4)cc3F)c2cc1OC` [Example 349, N-(4-{[7-{[3-(diethylamino)propyl]oxy}-6-(methyloxy)quinazolin-4-yl]oxy}-3-fluorophenyl)-N′-(4-fluorophenyl)cyclopropane-1,1-dicarboxamide], the IC50 in assay [1], in assay [2] and in assay [3] was below 50 nM each time.
As to `COc1cc2nccc(Oc3ccc(NC(=O)[C@@H]4CCCN4Cc4ccccc4)cc3)c2cc1OC` [Example 111, N-(4-{[6,7-bis(methyloxy)quinolin-4-yl]oxy}phenyl)-1-(phenylmethyl)prolinamide], the IC50 in assay [1] and in assay [2] was 500 to 5000 nM in each case.
As for `COc1cc2nccc(Oc3ccc(N4CCN(Cc5ccccc5)CC4)cc3)c2cc1OC` [Example 115, 6,7-bis(methyloxy)-4-({4-[4-(phenylmethyl)piperazin-1-yl]phenyl}oxy)quinoline], the IC50 in assay [1] and in assay [2] was 500 to 5000 nM throughout.
For the compound `COc1cc2nccc(Oc3ccc(N4CCN(Cc5ccccc5)CC4=O)cc3)c2cc1OC` [Example 116, 1-(4-{[6,7-bis(methyloxy)quinolin-4-yl]oxy}phenyl)-4-(phenylmethyl)piperazin-2-one], the IC50 in assay [1] and in assay [2] was 500 to 5000 nM in each case.
`COc1cc2nccc(Oc3ccc(NC(=O)C(CC(C)C)N(C)Cc4ccccc4)cc3)c2cc1OC` (stereo not shown) [Example 120, N1-(4-{[6,7-bis(methyloxy)quinolin-4-yl]oxy}phenyl)-N2-methyl-N2-(phenylmethyl) leucinamide]: the IC50 in assay [1] and in assay [2] was 500 to 5000 nM each time.
For the compound `CCN(CC)CCOc1cc2ncnc(Oc3ccc(NC(=O)C4(C(=O)Nc5ccc(F)cc5)CCC4)cc3F)c2cc1OC` [Example 363, N-(4-{[7-{[2-(diethylamino)ethyl]oxy}-6-(methyloxy)quinazolin-4-yl]oxy}-3-fluorophenyl)-N′-(4-fluorophenyl)cyclobutane-1,1-dicarboxamide], the IC50 in assay [1] and in assay [2] was below 50 nM each time.
`COc1cc2nc(SC)cc(Oc3ccc(NC(=O)C4(C(=O)Nc5ccc(F)cc5)CC4)cc3F)c2cc1OC` [Example 338, N-(4-{[6,7-bis(methyloxy)-2-(methylthio)quinolin-4-yl]oxy}-3-fluorophenyl)-N′-(4-fluorophenyl)cyclopropane-1,1-dicarboxamide]: the IC50 in assay [1] and in assay [2] was 500 to 5000 nM each time.
With `COc1cc2nccc(Oc3ncc(NC(=O)C4(C(=O)NCCc5ccccc5)CC4)cc3Cl)c2cc1OC` [Example 302, N-(6-{[6,7-bis(methyloxy)quinolin-4-yl]oxy}-5-chloropyridin-3-yl)-N′-(2-phenylethyl)cyclopropane-1,1-dicarboxamide], the IC50 in assay [1] and in assay [2] was 500 to 5000 nM throughout.
As to `COc1cc2nccc(Oc3ccc(NC(=O)C(C)N(C)Cc4ccccc4)cc3)c2cc1OC` (stereo not shown) [Example 118, N1-(4-{[6,7-bis(methyloxy)quinolin-4-yl]oxy}phenyl)-N2-methyl-N2-(phenylmethyl) alaninamide], the IC50 in assay [1] and in assay [2] was 500 to 5000 nM throughout.
Turning to `COc1cc2nccc(Oc3ccc(NC(=O)[C@@H](NCc4ccccc4)C(C)C)cc3)c2cc1OC` [Example 121, N1-(4-{[6,7-bis(methyloxy)quinolin-4-yl]oxy}phenyl)-N2-(phenylmethyl)valinamide], the half-inhibitory concentration (IC50) in assay [1] and in assay [2] was 500 to 5000 nM each time.
As for `COc1cc2nccc(Oc3ncc(NC(=O)CC(=O)Nc4ccc(F)cc4F)cc3Cl)c2cc1OC` [Example 252, N-(6-{[6,7-bis(methyloxy)quinolin-4-yl]oxy}-5-chloropyridin-3-yl)-N′-(2,4-difluorophenyl)propanediamide], the results for the IC50 in assay [1] (setting [4]) and in assay [2] (setting [4]) were below 50 nM and 500 to 5000 nM, respectively.
Take `CO/N=C(\C)C(=O)Nc1ccc(Oc2ccnc3cc(OC)c(OC)cc23)cc1` [Example 108, (2E)-N-(4-{[6,7-bis(methyloxy)quinolin-4-yl]oxy}phenyl)-2-[(methyloxy)imino] propanamide]: the IC50 in assay [1] and in assay [2] was 50 to 500 nM each time.
For the compound `COc1cc2nccc(Oc3ccc(NC4=NC(Cc5ccccc5)CO4)cc3)c2cc1OC` (stereo not shown) [Example 114, N-(4-{[6,7-bis(methyloxy)quinolin-4-yl]oxy}phenyl)-4-(phenylmethyl)-4,5-dihydro-1,3-oxazol-2-amine], the IC50 in assay [1] lay in the range of 500 to 5000 nM; in assay [2], 50 to 500 nM.
On to `COc1cc2nccc(Oc3ccc(NC(=O)C(C)NCc4ccccc4)cc3)c2cc1OC` (stereo not shown) [Example 117, N1-(4-{[6,7-bis(methyloxy)quinolin-4-yl]oxy}phenyl)-N2-(phenylmethy)alaninamide], for which the IC50 in assay [1] and in assay [2] was 500 to 5000 nM each time.
In the case of `COc1cc2c(Oc3ccc(NC(=O)C(=O)NCc4ccc(Cl)cc4)cc3F)ccnc2cc1OCC1CCNCC1` [Example 268, N-[(4-chlorophenyl)methyl]-N′-[3-fluoro-4-({6-(methyloxy)-7-[(piperidin-4-ylmethyl)oxy]quinolin-4-yl}oxy)phenyl]ethanediamide], the IC50 in assay [1] (setting [4]) and in assay [2] (setting [4]) was below 50 nM each time.
